Consider 1 compound from US20260041653A1, “AN HDAC INHIBITOR FOR TREATING CANCER WITH A MODIFIED STK11 ACTIVITY OR EXPRESSION” (Tango Therapeutics, Inc., priority 2022, published 2026).

Data set [1] in a line: PK/PD study, plasma concentrations in MC38 tumor-bearing mice. In kind it is in vivo, C57BL/6 mice. As to conditions: for free unbound exposure in plasma: based on 10.05% free fraction. As for the experimental part: In a separate PK/PD study, MC38 tumor-bearing female C57BL/6 mice (12/group) were assigned to treatment groups with similar mean tumor volumes of approximately 430 mm^3 and treated with vehicle (5% N,N-dimethylacetamide [DMA]+30% polyethylene glycol [PEG] 400+65% of 30% 2-hydroxypropyl-beta-cyclodextrin [HP-β-CD] in water) or Compound I at 30, 100, and 300 mg/kg once daily (QD) for 2 days. […] Peripheral blood mononuclear cells (PBMC) and tumor samples were harvested at 2, 8, and 24 hours after last dose. The PBMC samples were processed for determination of mean florescent level of acetyl-histone H2B by flow cytometry. Tumor samples were processed for determination of protein levels of acetyl-histone H3 by Western blot.

The target in a further data set is CYP2D6 (Homo sapiens, UniProt P10635). Nature of the data set: Metabolism by recombinant human CYP2D6. Format: in vitro ADME. As to conditions: read-out: terminal half life (T1/2), rh CYP2D6. As for the experimental part:
Drug metabolizing enzymes involved in the biotransformation of Compound I were investigated using human liver microsomes (HLM) and recombinant enzymes. Compound I was stable in HLMs (>93% remaining after 240 minutes of incubation with HLM protein concentration at 0.6 mg/ml). CYP selective inhibitor experiments were not performed due to lack of appreciable Compound I turnover.

Another data set relates to STK11-null 3LL tumor. Kind of data set: Anti-tumor efficacy in PD-1 resistant STK11-null 3LL model. The note with it: Compound I 75 mg/kg, Anti-PD1 10 mg/kg. Format: in vivo. The protocol:
An in vivo anti-tumor efficacy of double combination treatment of Anti-PD1 and Compound I in a PD-1 resistant STK11-null 3LL model was performed. The parental (non STK11KO) 3LL line is relatively resistant to anti-PD1 treatment.
The animals (8/group) were divided into 4 groups: Group I was treated with a control antibody Anti-IgG2, group 2 was treated with anti-PD1 antibody, group 3 was treated with Compound I 75 mg/kg, and group 4 was treated with Compound 1 75 mg/kg and anti-PD1 antibody. Tumor volume and survival was monitored over the course of treatment. The tumor volume and survival was plotted by treatment group (FIG. 17A and FIG. 17B, respectively). The combination treatment with Compound I decreased the PD-1 resistance of this model caused by the SKT11 knockout to the baseline characteristic of the parental line as shown by Group 4's decreased tumor volume and increased survival over time compared to the other groups.

In the next data set the test system is CoREST complex. Nature of the data set: Fluorescence-based deacetylase assay of cell-derived HDAC complex, CoREST. Format: biochemical. The text has this: The HDAC inhibition was profiled in a fluorescence-based deacetylase assay.
The mark [2] stands for this setting: 30, 100, 300 mg/kg QD for 2 days.

Entries after “also recorded” stand apart in the source; their conditions may differ. A value given as a limit tells only on which side of the number the result lay.

Sequence of CYP2D6 (P10635 whole entry): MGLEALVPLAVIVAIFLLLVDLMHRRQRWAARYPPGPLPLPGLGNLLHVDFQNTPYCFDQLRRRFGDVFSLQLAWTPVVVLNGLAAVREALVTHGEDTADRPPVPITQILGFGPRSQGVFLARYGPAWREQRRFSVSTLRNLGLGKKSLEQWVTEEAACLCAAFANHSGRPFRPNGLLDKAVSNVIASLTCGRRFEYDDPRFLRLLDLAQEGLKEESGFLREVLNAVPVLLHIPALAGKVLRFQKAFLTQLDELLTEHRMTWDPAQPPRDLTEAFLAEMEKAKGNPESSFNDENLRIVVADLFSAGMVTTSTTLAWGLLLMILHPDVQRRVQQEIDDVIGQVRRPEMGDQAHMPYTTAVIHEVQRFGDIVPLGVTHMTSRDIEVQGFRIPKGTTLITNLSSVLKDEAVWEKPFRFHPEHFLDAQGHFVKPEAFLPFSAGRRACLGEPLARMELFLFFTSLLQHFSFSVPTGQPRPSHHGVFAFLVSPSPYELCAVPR

For `C[S@@](=N)(=O)c1ccc(C(=O)Nc2cc(-c3ccc(F)cc3)ccc2N)cc1` [Compound I, (R)—N-(4-amino-4′-fluoro-[1,1′-biphenyl]-3-yl)-4-(S-methylsulfonimidoyl)benzamide], the “free unbound exposure in plasma” value in data set [1] (30 mg/kg QD for 2 days) came out at 5470 ng·h/mL; in data set [1] (100 mg/kg QD for 2 days) it was 17238 ng·h/mL; in data set [1] (300 mg/kg QD for 2 days), 69665 ng·h/mL. Besides, the “plasma concentrations versus dose” value in data set [1] (setting [2]) was “dose proportional”. Besides, the “time of maximal plasma concentrations after the last dose” value in data set [1] (setting [2]) stood at 1 h. The half-life on CYP2D6 is > 1 h. Besides, the “Median TTE” value in the data set on STK11-null 3LL tumor was determined as 18 days. For the same compound, the “selectivity for CoREST deacetylase compared to NCOR, NuRD, and Sin3” value in the data set with CoREST complex is “significant selectivity; also recorded: selective for the CoREST complex”.
